According to patent US9296759B2, “Amino-oxazine and amino-dihydrothiazine compounds as beta-secretase modulators and methods of use” (AMGEN INC., priority 2011, dated 2016):
Where two headings read alike, the source gives them in different places.

Tests used:
[1] = people of the phase I trial; cited from earlier work
[2] = test system: pigment epithelium of the rat's eye; conditions: higher compound dose given for three months; cited from earlier work
[3] = molecular target: Cathepsin D (Homo sapiens (Human), UniProt P07339); assay: In vitro enzymatic Cat D (Cathepsin D) FRET assay; format: biochemical; conditions: average IC50
Outline: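 CHO-expressed recombinant enzyme in 0.05 M citrate pH 3.5, 5 mM CHAPS, 10% DMSO final; reaction started with 20 nM quenched-peptide FRET substrate (cleavage site spanned by fluorophore/quencher), 1 h incubation.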

[4] = test system: Aβ40 in conditioned medium of cells stably expressing Amyloid Precursor Protein (APP); assay: In vitro BACE cell-based assay (HEK cell assay, Aβ40 sandwich ELISA); conditions: Homo sapiens, HEK293; average IC50, Aβ40, 24 h incubation
Outline: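 Secreted Aβ40 was quantified by sandwich ELISA (pAb40 capture, biotinylated 6E10 detection, Europium time-resolved fluorescence). IC50 derived from percent inhibition versus concentration.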

[5] = molecular target: BACE 1 (beta secretase enzyme) (Homo sapiens (Human), UniProt P56817); assay: In vitro enzymatic BACE FRET assay; format: biochemical; conditions: average IC50
Outline: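 The enzyme was tested in 0.05 M acetate, pH 4.2, with 10% DMSO final and 100 uM genapol. The reaction was started with 50 nM quenched FRET peptide substrate, incubated one hour and stopped with Tris to neutral pH. Cleavage was read as fluorescence ([…]).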

[6] = test system: Abeta 40; assay: In vivo inhibition of beta-secretase: Abeta 40 reduction in CSF and brain of the rat; conditions: 10 mpk, after 4 hrs
From the text: In Vivo Inhibition of Beta-Secretase
Several animal models, including mouse, rat, dog, and monkey, may be used to screen for inhibition of beta-secretase activity in vivo following administration of a test compound sample. Animals used in this invention can be wild type, transgenic, or gene knockout animals. For example, the Tg2576 mouse model, prepared and conducted as described in Hsiao et al., 1996, Science 274, 99-102, and other non-transgenic or gene knockout animals are useful to analyze in vivo inhibition of Amyloid beta peptide (Abeta) production in the presence of inhibitory test compounds. Generally, 2 to 18 month old Tg2576 mice, gene knockout mice or non-transgenic animals are administered test compounds formulated in vehicles, such as cyclodextran, phosphate buffers, hydroxypropyl methylcellulose or other suitable vehicles. One to twenty-four hours following the administration of compound, animals are sacrificed, and brains as well as cerebrospinal fluid (CSF) and plasma are removed for analysis of A-beta levels and drug or test compound concentrations (Dovey et al., 2001, Journal of Neurochemistry, 76, 173-181) Beginning at time 0, animals are administered by oral gavage, or other means of delivery such as intravenous injection, an inhibitory test compound of up to 100 mg/kg in a standard, conventional formulation, such as 2% hydroxypropyl methylcellulose, 1% Tween80. A separate group of animals receive 2% hydroxypropyl methylcellulose, 1% Tween80 alone, containing no test compound, and serve as a vehicle-control group. At the end of the test period, animals are sacrificed and brain tissues, plasma or cerebrospinal fluid are collected. Brains are either homogenized in 10 volumes (w/v) of 0.2% diethylamine (DEA) in 50 mM NaCl (Best et al., 2005, Journal of Pharmacology and Experimental Therapeutics, 313, 902-908), or in 10 volumes of 0.5% TritonX-100 in Tris-buffered saline (pH at about 7.6). Homogenates are centrifuged at 355,000 g, 4° C. for 30 minutes. CSF or brain supernatants are then analyzed for the presence of A-beta peptide by specific sandwich ELISA assays based on ECL (Electrochemiluminescence) technology. For example, rat Abeta40 is measured using biotinylated-4G8 (Signet) as a capture antibody and Fab40 (an in-house antibody specific to the C-terminal of Abeta40) as a detection antibody. For example, 4 hours after administration of 30 mg/kg oral dose of the test compound in 2% hydroxypropyl methylcellulose, 1% Tween80 (pH2.2) to 200 g male Sprague Dawley rats, amyloid beta peptide levels are measured for reduction by X % and Y % in cerebrospinal fluid and brain, respectively, when compared to the levels measured in the vehicle-treated rats.
• Oral: 2% HPMC, 1% Tween80, pH 2.2 • IV: 5% EtOH, 45% Propylene glycol in 5% Dextrose
The compounds of the invention may be shown to reduce the formation and/or deposition of amyloid beta peptide in the cerebrospinal fluid (CSF) as well as in the brain of a mouse or rat at either 3 mpk, 10 mpk or 30 mpk (mpk=mg compound per kg weight of the animal) dosing concentrations after 4 hrs.

[7] = Abeta 40, rat CSF, read-out: % reduction of rat CSF levels at 10 pmk
[8] = Abeta 40, rat brain, read-out: % reduction of rat brain levels at 10 mpk

Cathepsin D, sequence (P07339 65-412, species assumed): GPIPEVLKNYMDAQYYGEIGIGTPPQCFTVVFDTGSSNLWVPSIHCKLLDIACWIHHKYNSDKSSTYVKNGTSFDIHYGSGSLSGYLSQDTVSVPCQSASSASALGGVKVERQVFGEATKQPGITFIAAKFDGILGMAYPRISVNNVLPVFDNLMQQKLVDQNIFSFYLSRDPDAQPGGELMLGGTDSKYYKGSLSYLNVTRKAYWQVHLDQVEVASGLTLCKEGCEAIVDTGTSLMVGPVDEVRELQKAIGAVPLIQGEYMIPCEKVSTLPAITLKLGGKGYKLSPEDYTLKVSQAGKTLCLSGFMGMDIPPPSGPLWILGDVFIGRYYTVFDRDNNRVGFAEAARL
BACE 1 (beta secretase enzyme), sequence (P56817 46-501): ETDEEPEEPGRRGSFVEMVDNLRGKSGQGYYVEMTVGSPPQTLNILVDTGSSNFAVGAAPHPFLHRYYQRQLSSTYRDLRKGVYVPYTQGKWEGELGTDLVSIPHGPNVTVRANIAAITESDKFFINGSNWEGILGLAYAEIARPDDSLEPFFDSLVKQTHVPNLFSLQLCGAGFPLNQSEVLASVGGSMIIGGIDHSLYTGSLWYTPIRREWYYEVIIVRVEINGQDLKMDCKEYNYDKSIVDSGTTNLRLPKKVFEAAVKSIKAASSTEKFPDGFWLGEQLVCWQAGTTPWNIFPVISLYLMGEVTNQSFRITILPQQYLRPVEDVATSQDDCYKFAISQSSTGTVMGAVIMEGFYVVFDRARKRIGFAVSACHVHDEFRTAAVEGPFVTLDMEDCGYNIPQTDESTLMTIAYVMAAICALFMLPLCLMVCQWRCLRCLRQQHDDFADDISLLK

Row | IC50 [3] [µM] | IC50 [4] [nM] | IC50 [5] [nM] | SMILES | eye assessments [1] | retinal toxicity finding [2] | inhibition in vivo at 10 mg/kg [6, 7] [%] | inhibition in vivo at 10 mg/kg [6, 8] [%]
1 | 400 | 0.9 | 1.8 | COc1cnc(C(=O)Nc2ccc3c(c2)[C@@]2(CCOC(N)=N2)c2cc(-c4ccnc(F)c4)nc(F)c2O3)cn1 [Example 92, N-((5S)-2′-amino-1-fluoro-3-(2-fluoro-4-pyridinyl)-5′,6′-dihydrospiro[chromeno[2,3-c]pyridine-5,4′-[1,3]oxazin]-7-yl)-5-methoxy-2-pyrazinecarboxamide] |  |  | 79 | 70
2 | 198 | 0.7 | 1.5 | COc1ccc(C(=O)Nc2ccc3c(c2)[C@@]2(CCSC(N)=N2)c2cc(C4=CCOCC4)nc(F)c2O3)nc1 [Example 101, N-((5S)-2′-amino-3-(3,6-dihydro-2H-pyran-4-yl)-1-fluoro-5′,6′-dihydrospiro[chromeno[2,3-c]pyridine-5,4′-[1,3]thiazin]-7-yl)-5-methoxy-2-pyridinecarboxamide] |  |  | 76 | 59
3 | > 400 | 4.2 | 2.7 | COc1cnc(C(=O)Nc2ccc3c(c2)[C@@]2(CCOC(N)=N2)c2cc(C4=CCCOC4)nc(F)c2O3)cn1 [Example 51, N-((5S)-2′-amino-3-(5,6-dihydro-2H-pyran-3-yl)-1-fluoro-5′,6′-dihydrospiro[chromeno[2,3-c]pyridine-5,4′-[1,3]oxazin]-7-yl)-5-methoxy-2-pyrazinecarboxamide] |  |  | 85 | 76

Continued, compound first:

Row | SMILES | IC50 [3] [µM] | IC50 [4] [nM] | IC50 [5] [nM] | eye assessments [1] | retinal toxicity finding [2] | inhibition in vivo at 10 mg/kg [6, 7] [%] | inhibition in vivo at 10 mg/kg [6, 8] [%]
4 | C[C@@]1(c2cc(-c3cncnc3)c(F)cc2F)CCSC(N)=N1 [LY 2811376] |  |  |  | did not show any abnormalities | ravaged the pigment epithelium of the rat's eye |  | 
5 | NC1=N[C@@]2(CCO1)c1cc(NC(=O)c3ccc(Cl)cn3)ccc1Oc1cnc(C3CC3)cc12 [Example 81, N-((5S)-2′-amino-3-cyclopropyl-5′,6′-dihydrospiro[chromeno[2,3-c]pyridine-5,4′-[1,3]oxazin]-7-yl)-5-chloro-2-pyridinecarboxamide] | 400 | 1.1 | 10.7 |  |  | 76 | 64
